Results taken from patent publication EP0055702B1, “Antithrombotic treatment” (priority 1980, dated 1982).
Where “and” joins values, the source holds several entries; their conditions need not be identical. Identical values can stand only once. Like-named read-outs stand apart in the source and are kept apart here.

Columns and labels:
[1] = system: platelet aggregation induced by adenosine diphosphate (ADP); conditions: rabbit blood, Kikugawa, cited from earlier work
[2] = system: platelet thrombus formation on damaged aortic wall; assay: Indium-111 platelet labelling technique in rabbits; type: in vivo; conditions: intravenous 72.80 mg/kg
Protocol: In medicine, arterial thrombosis is diagnosable, for example, by clinical manifestations, by arteriography and, recently, by an indium 111 platelet labelling technique (see, for example, the article entitled "Differential Effects of Two Doses of Aspirin on Platelet-Vessel Wall Interaction In Vivo" by K. K. Wu et al being published in the Journal of Clinical Investigation, August, 1981).
Sodium bisulphite was evaluated as an anti-thrombotic agent in vivo using the indium-111 platelet labelling technique in rabbits (see the Wu et al article above cited). The material was administered by intravenous injection (72.80 milligrams per kilogram of animal body weight).

F XII = molecular target: T1, F XII (Homo sapiens, UniProt P00748); assay: Factor XII assay, Example 4; type: biochemical; conditions: for F XII: Control 86
T1 construct: from tissue; host or cells: human plasma
T1 sequence (P00748 20-615): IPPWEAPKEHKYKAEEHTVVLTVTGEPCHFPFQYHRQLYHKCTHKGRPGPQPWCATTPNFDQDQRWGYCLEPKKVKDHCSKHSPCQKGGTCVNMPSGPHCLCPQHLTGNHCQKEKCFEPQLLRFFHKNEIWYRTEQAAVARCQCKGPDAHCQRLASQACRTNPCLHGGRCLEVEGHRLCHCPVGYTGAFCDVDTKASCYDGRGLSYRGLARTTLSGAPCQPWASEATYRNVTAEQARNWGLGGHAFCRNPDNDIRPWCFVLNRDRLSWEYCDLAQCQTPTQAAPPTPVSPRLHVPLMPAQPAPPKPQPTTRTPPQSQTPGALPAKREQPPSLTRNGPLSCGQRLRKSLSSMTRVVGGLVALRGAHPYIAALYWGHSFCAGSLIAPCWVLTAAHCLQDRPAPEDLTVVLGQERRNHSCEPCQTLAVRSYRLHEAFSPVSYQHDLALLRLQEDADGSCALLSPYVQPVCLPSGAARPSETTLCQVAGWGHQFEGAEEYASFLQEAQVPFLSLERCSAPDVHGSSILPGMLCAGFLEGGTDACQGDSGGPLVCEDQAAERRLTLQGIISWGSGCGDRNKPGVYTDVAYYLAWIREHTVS
Description: (§1) The evaluation procedure used is that described in "Human Blood Coagulation, Haemostasis and Thrombosis", edited by Rosemary Biggs, published by Blackwell Scientific Publications, Oxford, England (2nd Edition), pages 670-705, 1976. […]

Factor V = molecular target: T2, Factor V (Homo sapiens, UniProt P12259); assay: Factor V assay, Example 4; type: biochemical; conditions: Control 75
T2 construct: from tissue; host or cells: human plasma
T2 sequence (P12259 29-2224): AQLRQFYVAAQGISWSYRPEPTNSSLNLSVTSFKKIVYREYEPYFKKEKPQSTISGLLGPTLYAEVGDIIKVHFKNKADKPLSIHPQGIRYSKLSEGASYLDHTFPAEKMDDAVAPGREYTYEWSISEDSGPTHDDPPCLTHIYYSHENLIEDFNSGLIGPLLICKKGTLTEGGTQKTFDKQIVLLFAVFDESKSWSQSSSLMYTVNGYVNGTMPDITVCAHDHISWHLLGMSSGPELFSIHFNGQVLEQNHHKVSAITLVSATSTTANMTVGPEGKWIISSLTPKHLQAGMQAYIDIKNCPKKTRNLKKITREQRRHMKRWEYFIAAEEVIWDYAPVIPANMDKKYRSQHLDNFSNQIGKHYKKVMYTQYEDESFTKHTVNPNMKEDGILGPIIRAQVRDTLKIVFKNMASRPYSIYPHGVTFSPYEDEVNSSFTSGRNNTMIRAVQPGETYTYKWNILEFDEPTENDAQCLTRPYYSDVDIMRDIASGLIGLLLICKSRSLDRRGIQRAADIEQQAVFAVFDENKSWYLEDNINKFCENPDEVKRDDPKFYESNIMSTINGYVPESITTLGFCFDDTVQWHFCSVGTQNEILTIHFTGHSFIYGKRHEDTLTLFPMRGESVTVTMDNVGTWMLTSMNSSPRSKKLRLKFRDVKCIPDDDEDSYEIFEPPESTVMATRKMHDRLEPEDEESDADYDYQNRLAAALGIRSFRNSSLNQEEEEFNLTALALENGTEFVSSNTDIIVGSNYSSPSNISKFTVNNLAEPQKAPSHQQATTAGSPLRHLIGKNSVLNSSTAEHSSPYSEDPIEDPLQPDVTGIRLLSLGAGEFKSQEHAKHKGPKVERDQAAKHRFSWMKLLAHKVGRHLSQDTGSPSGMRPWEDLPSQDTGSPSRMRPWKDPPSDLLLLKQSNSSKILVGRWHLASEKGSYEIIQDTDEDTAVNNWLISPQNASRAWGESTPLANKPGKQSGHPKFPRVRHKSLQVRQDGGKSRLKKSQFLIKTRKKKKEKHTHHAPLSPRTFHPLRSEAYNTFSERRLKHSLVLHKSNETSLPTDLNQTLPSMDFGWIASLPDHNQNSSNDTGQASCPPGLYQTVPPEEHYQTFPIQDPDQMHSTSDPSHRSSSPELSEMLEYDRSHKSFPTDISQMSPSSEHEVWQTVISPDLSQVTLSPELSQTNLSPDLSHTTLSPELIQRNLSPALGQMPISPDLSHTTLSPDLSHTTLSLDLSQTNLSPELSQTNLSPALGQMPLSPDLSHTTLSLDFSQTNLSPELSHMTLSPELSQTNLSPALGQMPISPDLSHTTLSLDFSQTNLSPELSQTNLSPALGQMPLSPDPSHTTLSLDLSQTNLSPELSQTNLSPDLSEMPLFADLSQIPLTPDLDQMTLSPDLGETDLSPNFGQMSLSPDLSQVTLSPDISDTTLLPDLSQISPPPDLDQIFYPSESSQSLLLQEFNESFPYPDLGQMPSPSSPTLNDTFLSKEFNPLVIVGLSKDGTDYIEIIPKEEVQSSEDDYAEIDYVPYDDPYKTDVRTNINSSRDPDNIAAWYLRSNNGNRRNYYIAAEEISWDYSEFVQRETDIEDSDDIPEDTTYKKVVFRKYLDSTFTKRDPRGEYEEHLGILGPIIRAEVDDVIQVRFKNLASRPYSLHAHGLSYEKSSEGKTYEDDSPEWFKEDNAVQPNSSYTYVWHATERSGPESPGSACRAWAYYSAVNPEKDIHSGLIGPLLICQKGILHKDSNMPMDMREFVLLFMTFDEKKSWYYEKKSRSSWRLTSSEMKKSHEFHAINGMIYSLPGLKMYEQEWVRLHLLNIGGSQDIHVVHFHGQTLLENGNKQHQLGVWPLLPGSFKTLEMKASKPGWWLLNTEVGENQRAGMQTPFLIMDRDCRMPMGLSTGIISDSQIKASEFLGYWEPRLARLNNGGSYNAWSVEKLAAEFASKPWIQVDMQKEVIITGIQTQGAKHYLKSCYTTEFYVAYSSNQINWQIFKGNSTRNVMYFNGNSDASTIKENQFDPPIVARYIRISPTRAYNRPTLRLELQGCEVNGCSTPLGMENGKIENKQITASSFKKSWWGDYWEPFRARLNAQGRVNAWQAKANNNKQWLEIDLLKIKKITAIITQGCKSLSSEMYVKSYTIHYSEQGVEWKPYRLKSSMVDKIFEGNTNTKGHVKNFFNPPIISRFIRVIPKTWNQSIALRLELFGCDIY
Description: as §1

human plasma [3] = assay: Thrombin Time, Example 4; type: biochemical; conditions: Control 12.00
Description: as §1

human plasma [4] = assay: Prothrombin Time, Example 4; type: biochemical
Description: as §1

F IX = molecular target: T3, F IX (Homo sapiens, UniProt P00740); assay: Factor IX assay, Example 4; type: biochemical; set-up: F IX: unit not given beside the values; conditions: for V IX: solution D; for V IX / F IX: Control 66
T3 construct: from tissue; host or cells: human plasma
T3 sequence (P00740 47-461): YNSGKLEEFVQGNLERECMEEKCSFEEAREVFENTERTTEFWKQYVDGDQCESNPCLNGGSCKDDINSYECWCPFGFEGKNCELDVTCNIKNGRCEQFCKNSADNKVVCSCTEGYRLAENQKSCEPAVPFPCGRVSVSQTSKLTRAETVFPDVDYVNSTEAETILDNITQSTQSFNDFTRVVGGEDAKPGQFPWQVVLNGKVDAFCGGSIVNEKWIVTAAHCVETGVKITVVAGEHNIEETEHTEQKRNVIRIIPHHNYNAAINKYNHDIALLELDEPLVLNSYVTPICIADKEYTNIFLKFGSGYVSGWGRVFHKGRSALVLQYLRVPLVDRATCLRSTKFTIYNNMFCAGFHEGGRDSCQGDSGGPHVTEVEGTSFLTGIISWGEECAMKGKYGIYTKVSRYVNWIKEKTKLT
Description: as §1

[5] = PT of coded and various agents, Example 6; type: biochemical
Description: A variety of agents were coded and evaluated under a code designation. Among these compounds, thiouracil, mercaptosuccinic acid, thiosemicarbazide, phenothiazine and sodium thiosulphate were included, so as to compare sodium bisulphite with certain compounds mentioned in USP 4,148,855.
After determination of PT and PTT values, the coded compounds were decoded.
The results are shown in Table V, where mean values of 5 replications in each case are reported. […] This procedure was repeated with some additional compounds on two different days using a different control on each day.

F XI = molecular target: T4, F XI (Homo sapiens, UniProt P03951); assay: Factor XI assay, Example 4; type: biochemical; conditions: for F XI: Control 117
T4 construct: from tissue; host or cells: human plasma
T4 sequence (P03951 19-625): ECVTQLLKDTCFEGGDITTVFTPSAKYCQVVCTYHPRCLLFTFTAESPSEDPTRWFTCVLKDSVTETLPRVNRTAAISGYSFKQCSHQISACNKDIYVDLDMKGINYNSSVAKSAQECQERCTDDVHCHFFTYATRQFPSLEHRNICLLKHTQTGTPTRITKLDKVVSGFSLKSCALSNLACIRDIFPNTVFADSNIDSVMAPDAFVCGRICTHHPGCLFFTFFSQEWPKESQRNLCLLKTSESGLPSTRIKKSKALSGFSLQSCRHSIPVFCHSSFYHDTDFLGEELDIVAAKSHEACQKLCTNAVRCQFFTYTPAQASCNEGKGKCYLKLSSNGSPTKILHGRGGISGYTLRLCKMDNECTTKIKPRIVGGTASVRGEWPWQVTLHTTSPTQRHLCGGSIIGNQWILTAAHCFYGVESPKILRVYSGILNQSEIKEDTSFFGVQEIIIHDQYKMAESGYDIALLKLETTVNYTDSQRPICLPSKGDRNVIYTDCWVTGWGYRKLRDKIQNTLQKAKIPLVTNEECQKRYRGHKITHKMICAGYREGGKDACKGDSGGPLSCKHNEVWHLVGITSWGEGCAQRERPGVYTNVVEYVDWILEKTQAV
Description: as §1

[6] = Sodium bisulphite 0.01 mg/ml, solution D
[7] = Sodium bisulphite 0.05 mg/ml, solution D
[8] = Sodium bisulphite 0.1 mg/ml, solution D
[9] = Sodium bisulphite 0.5 mg/ml, solution D
[10] = Sodium bisulphite 1.0 mg/ml, solution D
[11] = Sodium bisulphite 5.0 mg/ml, solution D
[12] = chemical grade sodium bisulphite 0.01 mg/ml
[13] = chemical grade sodium bisulphite 0.05 mg/ml
[14] = chemical grade sodium bisulphite 0.1 mg/ml
[15] = chemical grade sodium bisulphite 0.5 mg/ml
[16] = chemical grade sodium bisulphite 1.0 mg/ml
[17] = chemical grade sodium bisulphite 5.0 mg/ml

Sodium bisulphite
inhibition of platelet aggregation induced by ADP ([1]; 1 mM): 9% | inhibition of platelet aggregation induced by ADP ([1]; 5 mM): 66% | inhibition of platelet aggregation induced by ADP ([1]; 10 mM): 69% | Platelet accumulation II. at normal vessel wall cpm/gm ([2]; rabbits A, B, per gram dry weight of tissue, Control 72,140± 39,040): 98,611 cpm/gm and 83,066 cpm/gm | Platelet accumulation I. at damaged vessel wall cpm/gm ([2]; rabbits A, B, per gram dry weight of tissue, Control 1,167,820± 21,310): 133,986 cpm/gm and 146,630 cpm/gm | Platelet accumulation II. at normal vessel wall % ([2]; rabbits A, B, percentage of injected radioactivity per gram dry weight, Control 0.03± 0.02): 0.08% | Platelet accumulation I. at damaged vessel wall % ([2]; rabbits A, B, percentage of injected radioactivity per gram dry weight, Control 0.44± 0.08, 72.8 mg/kg): 0.11% and 0.15% | reduction of accumulation of platelet thrombus at the damaged vessel wall ([2]; rabbits): 70% | effect on Factor XII (F XII; 0.5 mg per ml, human plasma): significant inhibitory effect | F XII (F XII; [6]): 94% | F XII (F XII; [7]): 87% | F XII (F XII; [8]): 79% | F XII (F XII; [9]): 17% | F XII (F XII; [10]): 3% | F XII (F XII; [11]): <1% | F XII (F XII; [12]): 104 | F XII (F XII; [13]): 102 | F XII (F XII; [14]): 75 | F XII (F XII; [15]): 25 | F XII (F XII; [16]): 9 | F XII (F XII; [17]): <1 | Factor V (Factor V; [6]): 74% | Factor V (Factor V; [7]): 72% | Factor V (Factor V; [8]): 80% | Factor V (Factor V; [9]): 70% | Factor V (Factor V; [10]): 60% | Factor V (Factor V; [11]): 54% | Factor V (Factor V; [12]): 70 | Factor V (Factor V; [13]): 68 | Factor V (Factor V; [14]): 68 | Factor V (Factor V; [15]): 64 | Factor V (Factor V; [16]): 66 | Factor V (Factor V; [17]): 60 | TT (human plasma [3]; [6]): 12.07 s | TT (human plasma [3]; [7]): 12.10 s | TT (human plasma [3]; [8]): 12.00 s | TT (human plasma [3]; [9]): 13.97 s | TT (human plasma [3]; [10]): 16.08 s | TT (human plasma [3]; [11]): 34.3 s | TT (human plasma [3]; [12]): 12.20 s | TT (human plasma [3]; [13]): 12.30 s | TT (human plasma [3]; [14]): 12.15 s | TT (human plasma [3]; [15]): 14.53 s | TT (human plasma [3]; [16]): 16.23 s | TT (human plasma [3]; [17]): 35.5 s | PT (human plasma [4]; Sodium bisulphite 0.01 mg/ml, solution D, Control 34.67): 33.37 s | PT (human plasma [4]; Sodium bisulphite 0.05 mg/ml, solution D, Control 34.67): 34.00 s | PT (human plasma [4]; Sodium bisulphite 0.1 mg/ml, solution D, Control 34.67): 34.85 s | PT (human plasma [4]; Sodium bisulphite 0.5 mg/ml, solution D, Control 34.67): 42.73 s | PT (human plasma [4]; Sodium bisulphite 1.0 mg/ml, solution D, Control 34.67): 85.33 s | PT (human plasma [4]; Sodium bisulphite 5.0 mg/ml, solution D, Control 34.67): >150 s | PT (human plasma [4]; chemical grade sodium bisulphite 0.01 mg/ml, Control 12.20): 12.30 s | PT (human plasma [4]; chemical grade sodium bisulphite 0.05 mg/ml, Control 12.20): 12.47 s | PT (human plasma [4]; chemical grade sodium bisulphite 0.1 mg/ml, Control 12.20): 12.90 s | PT (human plasma [4]; chemical grade sodium bisulphite 0.5 mg/ml, Control 12.20): 16.10 s | PT (human plasma [4]; chemical grade sodium bisulphite 1.0 mg/ml, Control 12.20): 22.38 s | PT (human plasma [4]; chemical grade sodium bisulphite 5.0 mg/ml, Control 12.20): >150 s | effect on Factor IX (F IX; 0.5 mg per ml, human plasma): significant inhibitory effect | V IX (F IX; Sodium bisulphite 0.01 mg/ml): 60% | V IX (F IX; Sodium bisulphite 0.05 mg/ml): 52% | V IX (F IX; Sodium bisulphite 0.1 mg/ml): 56% | V IX (F IX; Sodium bisulphite 0.5 mg/ml): 4% | V IX (F IX; Sodium bisulphite 1.0 mg/ml): 3% | V IX (F IX; Sodium bisulphite 5.0 mg/ml): <1% | F IX (F IX; [12]): 49 | F IX (F IX; [13]): 44 | F IX (F IX; [14]): 40 | F IX (F IX; [15]): 5 | F IX (F IX; [16]): 1 | F IX (F IX; [17]): <1 | PT [5]: 22.42 s | PT ([5]; Table V, coded agents 0.5 mg/ml, Control 12.92): 23.06 s | effect on Factor XI (F XI; 0.5 mg per ml, human plasma): significant inhibitory effect | F XI (F XI; [6]): 98% | F XI (F XI; [7]): 81% | F XI (F XI; [8]): 58% | F XI (F XI; [9]): 27% | F XI (F XI; [10]): 4% | F XI (F XI; [11]): <1% | F XI (F XI; [12]): 83 | F XI (F XI; [13]): 82 | F XI (F XI; [14]): 55 | F XI (F XI; [15]): 24 | F XI (F XI; [16]): 2 | F XI (F XI; [17]): <1
